Reference: paper PMC11438102, “Modulation of cannabinoid receptor 2 alters neuroinflammation and reduces formation of alpha-synuclein aggregates in a rat model of nigral synucleinopathy” (Journal of Neuroinflammation, 2024)

Tested on: RAW264.7 macrophages
Assay: Phagocytosis assay with pHrodo green E. coli bioparticles
Assay type: cell-based
Conditions: additional incubation, regardless of LPS dose
Protocol: The RAW264.7 macrophage cells (ATCC Cat# TIB-71, RRID: CVCL_0493) were grown in sterile media which consisted of DMEM high glucose, 10% FBS, 2mM L-glutamine, 1x Pen-strep and 1x sodium pyruvate in a humidified 5% CO2 incubator at 37°C. RAW264.7 were maintained in […] tissue culture flasks and plated at a density of 1 × 10^4 cells in triplicate in 96-well plates for assays. Cells were stimulated with either lipopolysaccharide (LPS O111:B4; Sigma Cat#L2630) at 100ng/mL or 1000ng/mL (750EU/mL or 7500 EU/mL, respectively). One hour prior to this stimulation the cells were pre-treated with the CB2 inverse agonist SMM-189 at 3μM or 7 μm or its vehicle. Specifically for cell culture experiments, SMM-189 was formulated with 40% ethanol (v/v), 20% tween-20 (v/v) and 40% saline (v/v). A phagocytosis assay was conducted 24 h after LPS.
The phagocytosis assay was performed using pHrodo green E. coli bioparticles (Invitrogen Cat# P35366) according to the manufacturer’s instructions. Five images per well were then collected every 30 min for 24 h on an EVOS M7000 microscope (Invitrogen, ThermoFisher Scientific). The cells were maintained for this duration using an on-stage incubator kept at 37°C and 5% CO2. Analysis of the collected images was performed using EVOS Celleste software (version 5.0), which counted the cells and then measured the integrated optical density of fluorescence within each well over the 24-hour time course. Analysis was conducted on the average integrated optical density across triplicate wells. Results were consistent across duplicate experimental replicates.

Compound: C=C1[C@@H](C)[C@H]2[C@H](Cc3ccccc3)NC(=O)[C@]23[C@H](OC(C)=O)/C=C/[C@@](C)(O)C(=O)[C@@H](C)C/C=C/[C@H]3[C@@H]1O [cytochalasin D, reference compound]
- GFP expression (phagocytosis control): significantly restricted
